Active and inactive are the calls of the source. The rule behind the calls is not given here.
Assays:
[1] = target: T1, Histone deacetylase 2 (Homo sapiens, UniProt Q92769); experiment: Inhibition of HDAC2 (unknown origin) assessed as residual activity at 1 x 10^-5M (reference value: 99.81%); settings: dose 1.0 10^-5M
[2] = target: Histone deacetylase 1 (Homo sapiens, UniProt Q13547); experiment: Inhibition of HDAC1 (unknown origin) using p53 residues 379 to 382 [RHKK(Ac)] as fluorogenic substrate assessed as residual activity at 1.37 x 10^-8M (reference value: 98.06%); settings: dose 1.37 10^-8M
[3] = target: Histone deacetylase 3 (Homo sapiens, UniProt O15379); experiment: Inhibition of HDAC3 (unknown origin) using p53 residues 379 to 382 [RHKK(Ac)] as fluorogenic substrate assessed as residual activity at 1.37 x 10^-8M (reference value: 103.08%); settings: dose 1.37 10^-8M
[4] = target: Histone deacetylase 4 (Homo sapiens) (UniProt P56524); experiment: Inhibition of HDAC4 (unknown origin) assessed as residual activity at 4.57 x 10^-9M (reference value: 98.90%); settings: dose 4.57 10^-9M
[5] = target: T2, Protein deacetylase HDAC6 (Homo sapiens) (UniProt Q9UBN7); experiment: Inhibition of HDAC6 (unknown origin) using p53 residues 379 to 382 [RHKK(Ac)] as fluorogenic substrate assessed as residual activity at 1.11 x 10^-6M (reference value: 101.06%); settings: dose 1.1 10^-6M
T2 sequence (whole entry): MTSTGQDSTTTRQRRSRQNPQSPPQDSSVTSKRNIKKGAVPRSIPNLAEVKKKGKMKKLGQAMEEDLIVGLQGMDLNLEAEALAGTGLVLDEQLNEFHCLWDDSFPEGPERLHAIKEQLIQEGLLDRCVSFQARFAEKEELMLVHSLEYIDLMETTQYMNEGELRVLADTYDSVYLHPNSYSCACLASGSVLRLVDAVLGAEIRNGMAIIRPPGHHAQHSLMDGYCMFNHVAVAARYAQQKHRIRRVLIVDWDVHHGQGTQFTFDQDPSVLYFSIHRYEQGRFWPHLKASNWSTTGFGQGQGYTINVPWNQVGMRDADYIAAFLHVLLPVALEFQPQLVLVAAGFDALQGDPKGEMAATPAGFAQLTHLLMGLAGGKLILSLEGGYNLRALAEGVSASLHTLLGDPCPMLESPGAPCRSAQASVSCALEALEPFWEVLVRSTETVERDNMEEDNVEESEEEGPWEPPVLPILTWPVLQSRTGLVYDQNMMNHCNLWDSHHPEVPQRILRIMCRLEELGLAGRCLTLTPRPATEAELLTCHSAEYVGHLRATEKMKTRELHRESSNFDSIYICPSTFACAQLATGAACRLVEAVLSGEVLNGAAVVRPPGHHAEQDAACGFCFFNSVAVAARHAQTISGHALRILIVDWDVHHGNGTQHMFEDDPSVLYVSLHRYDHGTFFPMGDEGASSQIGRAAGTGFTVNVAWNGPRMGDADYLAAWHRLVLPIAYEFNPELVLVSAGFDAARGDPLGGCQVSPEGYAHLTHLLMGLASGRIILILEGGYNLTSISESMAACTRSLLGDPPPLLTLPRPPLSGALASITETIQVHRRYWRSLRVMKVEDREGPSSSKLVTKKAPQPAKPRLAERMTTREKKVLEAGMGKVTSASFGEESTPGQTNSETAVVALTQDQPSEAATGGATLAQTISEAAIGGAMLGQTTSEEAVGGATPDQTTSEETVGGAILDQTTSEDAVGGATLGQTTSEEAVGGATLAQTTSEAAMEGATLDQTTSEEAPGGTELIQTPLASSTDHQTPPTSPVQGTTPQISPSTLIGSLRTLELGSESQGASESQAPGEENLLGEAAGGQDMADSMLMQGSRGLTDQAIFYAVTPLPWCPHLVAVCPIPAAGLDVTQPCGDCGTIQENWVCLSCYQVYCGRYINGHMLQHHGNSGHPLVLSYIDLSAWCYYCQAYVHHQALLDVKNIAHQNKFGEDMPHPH

[6] = target: T3, Histone deacetylase 7 (Homo sapiens) (UniProt Q8WUI4); experiment: Inhibition of HDAC7 (unknown origin) assessed as residual activity at 3.33 x 10^-6M (reference value: 102.66%); settings: dose 3.33 10^-6M
T3 sequence (whole entry): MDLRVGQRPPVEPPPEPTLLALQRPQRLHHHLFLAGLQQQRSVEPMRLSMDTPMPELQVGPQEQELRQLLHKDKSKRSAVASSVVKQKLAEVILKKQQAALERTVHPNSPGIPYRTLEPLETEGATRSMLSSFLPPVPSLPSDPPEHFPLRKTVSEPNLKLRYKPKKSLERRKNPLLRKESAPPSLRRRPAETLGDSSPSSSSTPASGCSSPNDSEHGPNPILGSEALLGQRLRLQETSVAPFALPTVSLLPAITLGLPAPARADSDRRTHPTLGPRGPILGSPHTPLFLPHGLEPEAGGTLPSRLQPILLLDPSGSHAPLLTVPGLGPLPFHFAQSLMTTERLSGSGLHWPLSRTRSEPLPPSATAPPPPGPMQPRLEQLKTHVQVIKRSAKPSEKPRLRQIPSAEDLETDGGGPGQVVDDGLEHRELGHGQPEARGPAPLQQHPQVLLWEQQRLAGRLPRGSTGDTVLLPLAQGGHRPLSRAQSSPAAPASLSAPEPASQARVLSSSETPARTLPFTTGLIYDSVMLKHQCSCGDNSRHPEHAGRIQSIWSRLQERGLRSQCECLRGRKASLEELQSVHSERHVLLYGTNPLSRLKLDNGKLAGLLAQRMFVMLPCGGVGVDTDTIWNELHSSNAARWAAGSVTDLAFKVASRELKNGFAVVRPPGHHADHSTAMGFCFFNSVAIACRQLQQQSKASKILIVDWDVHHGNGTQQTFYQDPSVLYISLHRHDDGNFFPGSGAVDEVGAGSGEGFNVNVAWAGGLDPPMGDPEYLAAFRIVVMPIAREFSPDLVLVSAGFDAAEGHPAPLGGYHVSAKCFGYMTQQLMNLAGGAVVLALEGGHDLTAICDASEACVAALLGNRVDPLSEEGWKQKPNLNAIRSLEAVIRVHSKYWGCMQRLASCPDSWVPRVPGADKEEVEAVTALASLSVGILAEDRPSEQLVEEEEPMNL

[7] = target: T3, Histone deacetylase 7 (Homo sapiens); experiment: Inhibition of HDAC7 (unknown origin) assessed as residual activity at 1.23 x 10^-7M (reference value: 102.66%); settings: dose 1.23 10^-7M
[8] = target: T1, Histone deacetylase 2; experiment: Inhibition of HDAC2 (unknown origin)
[9] = system: HL-60; experiment: Downregulation of HDAC1 protein expression in human HL-60 cells by Western blot analysis; type: functional, cell-based; settings: dose 0.2-5 µM
[10] = system: HL-60; experiment: Downregulation of PAR protein expression in human HL-60 cells at 0.5 to 1 times IC50 measured after 24 hrs by Western blot analysis; type: functional, cell-based
[11] = system: HL-60; experiment: Induction of cell cycle arrest in G0/G1 phase in human HL-60 cells assessed as downregulation of AKT protein expression at 0.5 to 1 times IC50 by Western blot analysis; type: functional, cell-based

T1 sequence (Q92769 whole entry, the tested form may be a part): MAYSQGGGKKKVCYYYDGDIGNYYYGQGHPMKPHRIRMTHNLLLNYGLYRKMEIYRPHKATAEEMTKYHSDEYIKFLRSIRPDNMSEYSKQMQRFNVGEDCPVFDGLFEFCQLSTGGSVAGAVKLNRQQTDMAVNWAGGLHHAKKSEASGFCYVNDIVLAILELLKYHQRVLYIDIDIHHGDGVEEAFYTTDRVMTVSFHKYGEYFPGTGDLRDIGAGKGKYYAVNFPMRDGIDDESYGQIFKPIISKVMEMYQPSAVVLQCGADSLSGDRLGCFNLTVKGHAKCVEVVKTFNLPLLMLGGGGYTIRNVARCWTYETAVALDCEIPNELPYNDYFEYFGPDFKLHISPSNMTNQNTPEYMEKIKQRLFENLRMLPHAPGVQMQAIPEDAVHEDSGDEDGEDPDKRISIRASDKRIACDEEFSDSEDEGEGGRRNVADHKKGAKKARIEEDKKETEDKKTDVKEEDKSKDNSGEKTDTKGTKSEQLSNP
Sequence of Histone deacetylase 4 (Homo sapiens) (P56524 whole entry, the tested form may be a part): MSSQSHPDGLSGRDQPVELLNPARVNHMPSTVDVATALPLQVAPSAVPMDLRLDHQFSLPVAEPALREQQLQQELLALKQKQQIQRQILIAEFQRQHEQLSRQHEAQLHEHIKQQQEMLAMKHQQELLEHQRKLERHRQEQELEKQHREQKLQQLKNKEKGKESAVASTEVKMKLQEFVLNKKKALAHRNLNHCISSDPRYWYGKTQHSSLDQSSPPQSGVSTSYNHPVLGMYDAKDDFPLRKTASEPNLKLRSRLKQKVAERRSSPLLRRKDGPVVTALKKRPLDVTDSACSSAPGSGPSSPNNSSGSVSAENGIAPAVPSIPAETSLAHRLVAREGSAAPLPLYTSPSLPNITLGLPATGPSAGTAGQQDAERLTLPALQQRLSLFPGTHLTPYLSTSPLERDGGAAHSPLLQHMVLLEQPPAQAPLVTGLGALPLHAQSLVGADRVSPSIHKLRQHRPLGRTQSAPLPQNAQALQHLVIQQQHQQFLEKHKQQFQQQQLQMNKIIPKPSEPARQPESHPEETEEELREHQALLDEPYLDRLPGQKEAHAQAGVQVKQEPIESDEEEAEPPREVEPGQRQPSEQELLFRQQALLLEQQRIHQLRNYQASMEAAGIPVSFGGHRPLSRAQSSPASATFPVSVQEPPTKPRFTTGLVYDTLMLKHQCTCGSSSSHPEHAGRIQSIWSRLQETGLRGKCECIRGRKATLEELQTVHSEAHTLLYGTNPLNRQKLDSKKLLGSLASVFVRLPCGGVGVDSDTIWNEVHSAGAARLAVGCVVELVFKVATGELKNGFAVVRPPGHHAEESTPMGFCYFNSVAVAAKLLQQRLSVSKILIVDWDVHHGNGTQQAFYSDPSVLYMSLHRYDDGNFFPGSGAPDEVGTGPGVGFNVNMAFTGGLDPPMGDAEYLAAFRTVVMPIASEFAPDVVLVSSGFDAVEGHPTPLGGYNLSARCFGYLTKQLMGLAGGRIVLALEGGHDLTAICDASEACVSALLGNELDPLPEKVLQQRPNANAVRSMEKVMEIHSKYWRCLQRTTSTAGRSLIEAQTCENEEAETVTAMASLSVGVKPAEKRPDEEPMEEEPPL
Sequence of Histone deacetylase 3 (O15379 whole entry, the tested form may be a part): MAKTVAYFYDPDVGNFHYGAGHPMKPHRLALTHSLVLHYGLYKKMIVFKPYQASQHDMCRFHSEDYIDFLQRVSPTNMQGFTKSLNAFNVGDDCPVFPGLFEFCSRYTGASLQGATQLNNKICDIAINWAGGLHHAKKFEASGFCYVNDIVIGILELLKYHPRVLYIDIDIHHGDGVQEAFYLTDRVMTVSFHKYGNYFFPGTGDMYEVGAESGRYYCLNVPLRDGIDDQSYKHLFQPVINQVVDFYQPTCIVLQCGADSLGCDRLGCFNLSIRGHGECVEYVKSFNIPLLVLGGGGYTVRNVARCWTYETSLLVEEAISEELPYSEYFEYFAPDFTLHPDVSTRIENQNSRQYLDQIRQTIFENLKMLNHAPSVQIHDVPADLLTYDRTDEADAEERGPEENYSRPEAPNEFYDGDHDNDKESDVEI
Sequence of Histone deacetylase 1 (Q13547 whole entry, the tested form may be a part): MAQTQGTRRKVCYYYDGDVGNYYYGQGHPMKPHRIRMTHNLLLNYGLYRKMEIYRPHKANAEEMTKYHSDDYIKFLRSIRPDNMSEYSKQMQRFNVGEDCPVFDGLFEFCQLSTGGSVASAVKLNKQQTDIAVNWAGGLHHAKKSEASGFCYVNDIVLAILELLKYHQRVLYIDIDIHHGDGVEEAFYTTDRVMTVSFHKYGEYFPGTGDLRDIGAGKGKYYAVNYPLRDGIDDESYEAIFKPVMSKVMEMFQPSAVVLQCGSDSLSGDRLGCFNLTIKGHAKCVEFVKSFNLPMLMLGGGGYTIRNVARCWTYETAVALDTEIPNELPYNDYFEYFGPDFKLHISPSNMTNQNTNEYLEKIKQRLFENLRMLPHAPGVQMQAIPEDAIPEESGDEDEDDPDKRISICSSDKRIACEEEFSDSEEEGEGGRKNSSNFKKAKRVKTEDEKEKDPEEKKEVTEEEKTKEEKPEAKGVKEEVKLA

Activity [1]: 7.52%
Activity [2]: 73.9%
Activity [3]: 110%
Activity [4]: 95.9%
Activity [5]: 79.8%
Activity [6]: 95.6%
Activity [7]: 89.1%
IC50 [8]: 147 nM
Compound: NC(=O)c1cccc2[nH]c(-c3ccc(NCc4ccc(C(=O)Nc5ccccc5N)cc4)cc3)nc12
Activity [9]: Dose-Dependent Effect
Activity [10]: Dose-Dependent Effect
Activity [11]: Active

Reference: ChEMBL document CHEMBL5550160, “Leveraging a rationally designed veliparib-based anilide eliciting anti-leukemic effects for the design of pH-responsive polymer nanoformulation” (Eur J Med Chem, 2024)
